The values below are quoted from earlier work in patent US20250134923A1, “SUPERABSORBENT HYDROGELS WITH LIPASE INHIBITOR” (JUNION LABS PTE. LTD., priority 2021, published 2025).

Each structure is given as a SMILES string.

For the data set, the system named is fat absorption. As to conditions: therapeutic doses (120 mg with meals).

Turning to `CCCCCCCCCCC[C@@H](C[C@@H]1OC(=O)[C@H]1CCCCCC)OC(=O)[C@H](CC(C)C)NC=O` [Orlistat, (2S,3S,5S)-5-[(S)-2-formamido4-methyl-valeryloxy]-2-hexyl-3-hydroxy-hexadecanoic 1,3 acid lactone], the additional caloric deficit result is “approximately 200 calories” and the “inhibition of fat absorption (of ingested fat)” value was “approximately 30%”.
